Consider 1 molecule from patent US20250332326A1, “METHOD OF GENERATING 3D POROUS HYBRID PROTEIN NANOSCAFFOLD” (Rutgers, The State University of New Jersey, priority 2024, published 2025).

SMILES strings stand for the structures.

The test system of test [1] is LPS-stimulated THP-1-derived macrophages. The test can be described thus: qRT-PCR of inflammatory genes in LPS-stimulated macrophages co-cultured with scaffolds. Conditions: Transwell system, 50, 100, 200 μg/mL BETi loading. The class given is cell-based, human. The procedure: THP-1 monocytes were purchased from ATCC® and cultured using standard protocol provided by the vendor (10% FBS in 1640 RPMI basal media supplemented with […] beta-mercaptoethanol). Media was refreshed every other day. THP-1 monocytes were cultured at a density of 100,000 to 500,000 cells per mL. When they proliferate above the density, cells were centrifuged down for media change. To convert suspension culture of THP-1 monocytes into adherent macrophages, 200 ng/ml of phorbol myristate acetate (PMA) was added into the media then split into 24 well plates at designated density (100,000 per well). PMA was treated for 1-3 days then fresh growth media without PMA was added. To stimulate the macrophages, 1,000 ng/mL lipopolysaccharide (LPS, Sigma Aldrich) was included in the media for 4 hours. Macrophages were converted from THP-1 monocytes through PMA activation. Then different scaffold conditions, including chitosan nanoscaffold, 3D-PHP nanoscaffold, and control (PBS only), as well as 3D-PHP nanoscaffold loaded with low (50 μg), medium (100 μg) and high (200 μg) dosages of BETi (JQ-1 from Tocris) drugs were added into the macrophage cultured followed by the addition of 1 μg/mL LPS for stimulation of macrophages. […] Cells were lysed with Trizol®, and then the lysates were stored at −80° C. until ready for use. […]

Test [2] deals with rat nucleotomy disc injury model. The experiment in a line: Rat nucleotomy disc injury model, histological and MRI analysis 6 WPI. It counts as in vivo. On the procedure: Rats were anesthetized by injection of 2 mg/kg midazolam and 0.15 mg/kg medetomidine and butorphanol tartrate. After rats reached deep anesthesia, which was confirmed by tail pinching, posterior midline incision was performed at the Co6-7 level to expose the intervertebral disc. A no. 11 scalpel was used for the incision of posterior AF and the longitudinal cut was around 2 mm. […] After the nucleotomy, nanoscaffolds were pushed into the empty space using a micropipette tip. As controls, PBS was injected into the empty space after the nucleotomy. A heating pad was provided underneath the rats throughout the procedure and the rats were observed during recovery from the anesthesia.
MRI was performed on rats 6 WPI using a Bruker BioSpec (9.4 T) MRI scanner in order to investigate the regeneration of discs after the nucleotomy, which can be quantified by the signal intensities and water content through T2-weighted MRI. In the MRI study, time-to-repetition was set as 5,000 ms; time-toecho was set to 30 ms; and coronal axial planes were imaged for the rat discs. MRI index and signal intensities were used for the calculation of degree of damage of coccygeal disc tissues. Region of interest (ROI) was defined as the higher intensity area in the coronal plane and ROI was quantified using Fiji (Image J). MRI index was measured with blind tests by two independent observers.
At 6 WPI, animals were all sacrificed and disc tissues were harvested and fixed using 10% buffered formalin for one week. Decalcification was then performed using Rapid Cal Immuno™ (BBC biochemical) for another 2 weeks. Disc tissues were then paraffin-embedded and sectioned in the coronal directions with a Leica microtome. After dewaxing, rehydration, and permeabilization by methanol, H&E, immunohistofluorescent, and Safranin-O staining were performed on different sections. For H&E staining, tissue sections were stained in a solution with Mayer's Hematoxylin for 5 minutes then washed with water and counterstained in alcoholic solution of eosin for another minute without rinsing. […] For the Safranin-O staining, tissues were stained for 10 minutes by Weigert's iron hematoxylin solution followed by extensive washing with water. Then fast green solution was used for the second staining for 5 minutes followed by brief rinsing with 1% acetic acid solution and then stained with 0.1% Safranin-O solution. Afterwards, tissues were dehydrated and cleared using identical protocol as mentioned in the H&E staining. Safranin-O staining score was based on an 8-point scale previous used for IVD tissue analysis, and if no degenerative features were found a zero score was assigned. For the immunohistofluorescent and immunohistochemistry staining of inflammatory (e.g., MMP13 and IL1β), ECM (aggrecan, Collagen II) and pain (e.g., CGRP) markers, disc tissues with fixation and decalfication were first dewaxed, sectioned into 10 μm sections, and stained with primary antibodies followed by 24 hours incubation. After washing with PBS containing 0.1% Tween 20, the secondary antibodies were added and incubated for 2 hours. Finally, the nucleus was stained with DAPI for 15 minutes. Sections were then examined under a fluorescent or colorimetric microscope with a Zeiss 880 confocal microscope and Olympus microscope, respectively. ImageJ was used for quantification in an automatic manner.

Turning to `Cc1sc2c(c1C)C(c1ccc(Cl)cc1)=N[C@@H](CC(=O)OC(C)(C)C)c1nnc(C)n1-2` [BETi, JQ1], in test [1], the “inflammatory responses (pro- and anti-inflammatory gene expression)” value is “significantly lowered the inflammatory responses”. For the same molecule, in test [2], the “IL-1β expression (positive area, immunostaining)” value was “did not induce a significant reduction” and the “MMP-13 levels (immunostaining)” value is reported as “did not suppress”. The “CGRP signals (pain marker, positive area ratio)” value in test [2] (compared to injury alone) is reported as “considerably less reduction”. For the same molecule, in test [2] (implanted or injected on day of nucleotomy), the “disc integrity / healthy disc tissue (H&E staining, MRI index)” value is given as “slightly improved the restoration of the disc structure”. In addition, in test [2] (result in words), the “up-regulation of Collagen II and aggrecan” value is “did not result in noticeable up-regulation”.
